Data set [1] relates to Plasmodium falciparum strain 3D7. As to the kind of experiment: Antimalarial activity, whole-cell SYBR Green I assay. It is filed as cell-based. To be noted: read-out: Antimalarial activity (IC50) Mean. Here is the method:
Antimalarial activity of compounds IIa and IIb can be accessed by exposing a P. falciparum strain (see Example 5), such as strain 3D7, which is chloroquine and mefloquine sensitive, to said compounds, and by using the SYBR Green I assay as described in Machado et. al, Ann. Clin. Med. Microbio. 2016, 2, 1010. Asynchronous parasites are cultivated for 72 hours in the presence of each compound. Fluorescence intensity was measured with a multi-mode microplate reader (Triad, Dynex Technologies). Compounds IIa and IIb were active against the malaria parasite (see Example 5, Table 1). Compounds were dissolved in RPMI-1640 with L-glutamine (BiowestTM) supplemented with […] (GibcoTM), herein after referred to as RPMIc, to obtain an intermediate solution of 100 μM. Laboratory-adapted P. falciparum strain 3D7, a chloroquine and mefloquine sensitive strain, was continuously cultured as described elsewhere (Machado et. al, Ann. Clin. Med. Microbio. 2016, 2, 1010). Parasites were cultivated in 5% haematocrit, 37° C. and atmosphere with 5% of CO2. […] (GibcoTM) at 0.5% was used as a substitute of human serum in the culture medium. Staging and parasitemia were determined by light microscopy of Giemsa-stained thin blood smears. Anti-malarial activity was determined using the SYBR Green I assay (Machado et. al, Ann. Clin. Med. Microbio. 2016, 2, 1010 and Lobo et. al, […]. 2018, 17, 1). Briefly, asynchronous parasites were cultivated for 72 hours in the presence of a 1:3 serial dilution of each compound.

The subject of data set [2] is MCF7 human breast adenocarcinoma. Kind of data set: Antitumoral effect, MTS metabolism assay, MCF7. The format is cell-based. To be noted: 72 hours.
The test system of data set [3] is PC3 human prostate adenocarcinoma. Kind of data set: Antitumoral effect, MTS metabolism assay, PC3. The format is cell-based. To be noted: 72 hours. On the technique in general: Tetrazolium assays rely on reduction of a dye to a coloured formazan, in cell work by metabolically active cells.
The test system of data set [4] is HCT116 human colorectal carcinoma. As to the kind of experiment: Antitumoral effect, MTS metabolism assay, HCT116. It is filed as cell-based. To be noted: HCT-116, 72 hours.
For data set [5], the system named is AML12 murine immortalized hepatocyte cell line. Kind of data set: Toxicity for non-tumoral cells, MTS assay, AML12. To be noted: for pIC50: Mus musculus, non-tumorigenic cell line, 72 hours, MTS; for Selectivity (IC50Compound II/IC50 Doxorubicin): ratio to doxorubicin. The format is cell-based.
The subject of data set [6] is U251 human glioblastoma. As to the kind of experiment: Antitumoral effect, MTS metabolism assay, U251. The format is cell-based. To be noted: U-251, 72 hours.
A short description of data set [7]: Fluorescence quantum yields determination. It is filed as physicochemical. To be noted: water with 30% DMSO; standard fluorescein in 0.1 M sodium hydroxide.
Data set [8] relates to HT-29 cells. To be noted: 2 mg/kg intravenous, eight injections.
Where [9] appears, read: chloroquine-sensitive 3D7 strain, asynchronous parasites, 72 hours.

pIC50: −log10 of the molar value. Values joined by “and” are separate entries in the source; they are usually repeats but may differ in a detail not shown here. Equal values may be shown once. Read-outs that look alike come from different tables or passages of the source.

A word on the pIC50: it is the negative decadic logarithm of the IC50, by convention in mol/L. For the molecule `CCN(CC)CCCC(C)Nc1ccnc2cc(Cl)ccc12` (stereo not shown) [CQ, chloroquine, reference compound], the pIC50 in data set [1] (3D7, 72 h) is 7.71.
With `COc1cc(NC(C)CCCNC(=O)OC2CCCC3(C2)OOC2(OO3)C3CC4CC(C3)CC2C4)c2ncccc2c1` (stereo not shown) [Compound IIa], in data set [1] (setting [9]), the pIC50 was 7.48.
Turning to `CC(C)(C)OC(=O)N1CCN(C(=O)OC2CCCC3(C2)OOC2(OO3)C3CC4CC(C3)CC2C4)CC1` (stereo not shown) [Compound IIb], the pIC50 in data set [1] (setting [9]) is 7.94.
For `COc1cccc2c1C(=O)c1c(O)c3c(c(O)c1C2=O)C[C@](O)(C(=O)CO)C[C@H]3O[C@@H]1CC(NC(=O)OCC2=CCCCC23OOC2(OO3)C3CC4CC2CC(O)(C4)C3)[C@@H](O)[C@@H](C)O1` (stereo partly shown) [Compound IIe], the pIC50 in data set [2] was 5.07; in data set [3], 4.84; in data set [4], 5.45; in data set [5], 4.52; in data set [6], 4.88. For the same molecule, in data set [5], the “Selectivity (IC50Compound II/IC50 Doxorubicin)” value is 180 and 179.
In the case of `COc1cccc2c1C(=O)c1c(O)c3c(c(O)c1C2=O)C[C@@](O)(C(=O)CO)C[C@@H]3O[C@H]1C[C@H](N)[C@H](O)[C@H](C)O1` [Doxorubicin, doxorubicin, reference compound], the pIC50 was 6.77 in data set [2]; 6.92 in data set [3]; 7.30 in data set [4]; 6.77 in data set [5]; 7.96 in data set [6]. The molecule further showed a fluorescence quantum yield in data set [7] of 2.8%. Also, the “reduction of the tumour mass versus negative control and vehicle control” value in data set [8] is “higher reduction of the tumour mass”.
As for `COc1cccc2c1C(=O)c1c(O)c3c(c(O)c1C2=O)C[C@](O)(C(=O)CO)C[C@H]3O[C@@H]1CC(NC(=O)OC2CCCC3(C2)OOC2(OO3)C3CC4CC(C3)CC2C4)[C@@H](O)[C@@H](C)O1` (stereo partly shown) [IIc], the pIC50 in data set [2] is 5.78; in data set [3] it was 5.86; in data set [4], 5.29; in data set [5], 5.74; in data set [6] it was 6.60. Also, the “Selectivity (IC50Compound II/IC50 Doxorubicin)” value in data set [5] was 10 and 10.64.

These data come from US20250064840A1, “DRUG DELIVERY SYSTEMS BASED ON ENDOPEROXIDES USEFUL IN DIAGNOSIS AND THERAPY, AND METHODS THEREOF” (FACULDADE DE FARMÁCIA DA UNIVERSIDADE DE LISBOA, priority 2021, published 2025).
